Assay [1] has as its system MV4:11 human cancer cell lines. Nature of the assay: Anti-proliferative activity, CellTiter-Glo viability assay, 7 day protocol. The assay is classed as cell-based. The following applies: MV4:11 cells, 7 day incubation, read-out: GI50 on cellular proliferation of MV4:11 human cancer cell lines. Put shortly:
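Luminescent CellTiter-Glo readout after 7-day compound exposure of MV4:11 cells plated at 3600 cells/ml (final DMSO 0.1%). GI50 derived from three biological × three technical replicates, reported as mean ± S.E.M.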
(ATP-based viability assays read luminescence as a measure of living cells.)

For another assay, the target named is WDR5 (Homo sapiens (Human), UniProt P61964). The assay is described as follows: TR-FRET binding assay (displacement of 10mer-Thr-FAM probe from WDR5). The following applies: read-out: Ki for Inhibition of WDR5 by TR-FRET assay. On the technique in general: TR-FRET usually uses a lanthanide donor and a delayed reading to cut background.
The mark [2] stands for this setting: TR-FRET, 10mer-Thr-FAM probe, WDR5-His tag 2 nM, pH 7.0.

pKi: −log10 of the molar value. Like-named read-outs stand apart in the source and are kept apart here.

Usually pKi stands for the negative decadic logarithm of the Ki, by convention in mol/L. Turning to `Cc1cc([C@@H](NC(=O)c2cc(Cn3cccc(C)c3=N)cc(-c3cccnc3C(F)(F)F)c2)C2CC2)ccc1F` [Example 343, (S)—N-(Cyclopropyl(4-fluoro-3-methylphenyl)methyl)-3-((2-imino-3-methylpyridin-1(2H)-yl)methyl)-5-(2-(trifluoromethyl)pyridin-3-yl)benzamide], in assay [1] (Homo sapiens, MV4-11, 168 h), the GI50 is 250 nM. Further, on WDR5 (setting [2]), the pKi was 9.29.
On to `Cc1ccn(Cc2cc(C(=O)N[C@H](c3ccc(F)c(C)c3)C3CC3)cc(-c3cccnc3C(F)(F)F)c2)c(=N)c1` [Example 344, (S)—N-(Cyclopropyl(4-fluoro-3-methylphenyl)methyl)-3-((2-imino-4-methylpyridin-1(2H)-yl)methyl)-5-(2-(trifluoromethyl)pyridin-3-yl)benzamide], for which the GI50 in assay [1] (Homo sapiens, MV4-11, 168 h) worked out at 680 nM. The pKi on WDR5 is 9.32.
Take `CCOc1c(C(=O)N[C@H](c2ccc(F)c(C)c2)C2CC2)cc(Cn2ccccc2=N)cc1-c1cn(C)nc1C(F)(F)F` [Example 347, (S)—N-(Cyclopropyl(4-fluoro-3-methylphenyl)methyl)-2-ethoxy-5-((2-iminopyridin-(2H)-yl)methyl)-3-(1-methyl-3-(trifluoromethyl)-1H-pyrazol-4-yl)benzamide]: the GI50 in assay [1] (Homo sapiens, MV4-11, 168 h) was under 100 nM. In addition, the negative logarithm of the Ki (pKi) at WDR5 (setting [2]) is over 10.00.
Turning to `CCOc1c(C(=O)N[C@H](c2ccc(F)c(C)c2)C2CC2)cc(Cn2cc(F)ccc2=N)cc1-c1cn(C)nc1C(F)(F)F` [Example 349, (S)—N-(Cyclopropyl(4-fluoro-3-methylphenyl)methyl)-2-ethoxy-5-((5-fluoro-2-iminopyridin-1(2H)-yl)methyl)-3-(1-methyl-3-(trifluoromethyl)-1H-pyrazol-4-yl)benzamide], the GI50 in assay [1] (Homo sapiens, 168 h) is under 100 nM. Further, the negative logarithm of the Ki (pKi) at WDR5 was over 10.00.
As for `Cc1cc([C@@H](NC(=O)c2cc(Cn3cccc(F)c3=N)cc(-c3cccnc3C(F)(F)F)c2)C2CC2)ccc1F` [Example 350, (S)—N-(Cyclopropyl(4-fluoro-3-methylphenyl)methyl)-3-((3-fluoro-2-iminopyridin-1(2H)-yl)methyl)-5-(2-(trifluoromethyl)pyridin-3-yl)benzamide], the GI50 in assay [1] (Homo sapiens, MV4-11, 168 h) was 140 nM. For the same compound, the pKi at WDR5 (setting [2]) is 9.92.
In the same order, the values of `Cc1cc([C@@H](NC(=O)c2cc(Cn3cccc(F)c3=N)cc(-c3cn(C)nc3C(F)(F)F)c2)C2CC2)ccc1F` [Example 351, (S)—N-(Cyclopropyl(4-fluoro-3-methylphenyl)methyl)-3-((3-fluoro-2-iminopyridin-1(2H)-yl)methyl)-5-(1-methyl-3-(trifluoromethyl)-1H-pyrazol-4-yl)benzamide] are under 100 nM and over 10.00.
For `Cc1cc([C@@H](NC(=O)c2cc(Cn3ccccc3=N)cc(-c3cn(C)nc3C(F)(F)F)c2)C2CC2)ccc1F` [Example 352, (S)—N-(cyclopropyl(4-fluoro-3-methylphenyl)methyl)-3-((2-iminopyridin-1(2H)-yl)methyl)-5-(1-methyl-3-(trifluoromethyl)-1H-pyrazol-4-yl)benzamide], in assay [1] (Homo sapiens, MV4-11, 168 h), the GI50 was under 100 nM. Further, on WDR5 (setting [2]), the pKi is over 10.00.
As for `COc1cc(OC)cc(C(C)NC(=O)c2cc(Cn3ccn(C)c3=N)cc(-c3ccc(F)cc3C)n2)c1` (centres unmarked) [Example 355, N-(1-(3,5-Dimethoxyphenyl)ethyl)-6-(4-fluoro-2-methylphenyl)-4-((2-imino-3-methyl-2,3-dihydro-1H-imidazol-1-yl)methyl)picolinamide], in assay [1] (Homo sapiens, MV4-11, 168 h), the GI50 is 1190 nM. Also, the pKi on WDR5 (setting [2]) was 8.45.
As for `Cc1cc([C@@H](NC(=O)c2cc(CN3CCOC3=N)cc(-c3cn(C)nc3C(F)(F)F)n2)C2CC2)ccc1F` [Example 361, (S)—N-(Cyclopropyl(4-fluoro-3-methylphenyl)methyl)-4-((2-iminooxazolidin-3-yl)methyl)-6-(1-methyl-3-(trifluoromethyl)-1H-pyrazol-4-yl)picolinamide], in assay [1] (Homo sapiens, MV4-11, 168 h), the GI50 is 940 nM. Also, the negative-log Ki (pKi) at WDR5 (setting [2]) is 9.11.
In the same order, the values of `Cc1ccnc(C(NC(=O)c2cc(Cn3ccn(C)c3=N)cc(-c3ncccc3C(F)(F)F)c2)C2CC2)c1` (centres unmarked) [Example 364, N-(Cyclopropyl(4-methylpyridin-2-yl)methyl)-3-((2-imino-3-methyl-2,3-dihydro-1H-imidazol-1-yl)methyl)-5-(3-(trifluoromethyl)pyridin-2-yl)benzamide] are 7800 nM and 8.37.
The corresponding values for `COc1cc(CNC(=O)c2cc(Cn3ccn(C)c3=N)nc(-c3ccc(F)cc3C)c2)cc(OC)c1` [Example 365, N-(3,5-Dimethoxybenzyl)-2-(4-fluoro-2-methylphenyl)-6-((2-imino-3-methyl-2,3-dihydro-1H-imidazol-1-yl)methyl)isonicotinamide] are 6000 nM and 9.26.
In the same order, the values of `COc1ccnc(CNC(=O)c2ccc(F)c(Cn3ccn(C)c3=N)c2)c1` [Example 366, 4-Fluoro-3-((2-imino-3-methyl-2,3-dihydro-1H-imidazol-1-yl)methyl)-N-((4-methoxypyridin-2-yl)methyl)benzamide] are 30000 nM and 7.89.
In the case of “N—((S)-Cyclopropyl(4-fluoro-3-methylphenyl)methyl)-2-ethoxy-5-((3-fluoro-2-iminopyridin-1(2H)-yl)methyl)-3-(1-methyl-3-(trifluoromethyl)-1,3-dihydro-2λ2-pyrazol-4-yl)benzamide [Example 348]”, the GI50 in assay [1] is under 100 nM. In addition, the negative-log Ki (pKi) at WDR5 is over 10.00.

For the origin of these results see US10844044B2 (Vanderbilt University, priority 2018, dated 2020).
